From patent US6294565A, “Methods of combatting infectious diseases using dicationic bis-benzimidazoles” (University of North Carolina at Chapel Hill, priority 2000, dated 2001)
In brackets after ≈: the same amount, converted by molar mass.

Legend:
[1] = tested on: C. albicans; test: standard in vitro fungal cell growth inhibition assay (broth dilution, M27-P), minimum fungicidal concentration; assay type: cell-based; details: Candida albicans, A39 clinical isolate, RPMI media, inoculum 10^4 cells, less than 0.01% survival of original inoculum
Description: (§1) Activity of the compounds were assessed using a standard in vitro fungal cell growth inhibition assay (the broth dilution antifungal susceptibility testing of yeast, proposed standard document M27-P, validated by the National Committee for Clinical Laboratory Standards, 1992). Briefly, this broth dilution procedure uses RPMI media, and an inoculum of 10^4 cells. Control tubes contained media alone. After the minimal inhibitor concentration was determined by the above procedure, tubes with no visible growth were subcultured to determine the minimum fungicidal concentration by using criteria of less than 0.01% survival of original inoculum. Two organisms were tested: (1) H99, a clinical isolate of C. neoformans which is fully susceptible to azoles and polyenes in vitro and in vivo; and (2) A39, a clinical isolate of C. albicans which is fully susceptible to azoles and polyenes.
(§2) The MFC's (minimum fungicidal concentration) against these two important AIDS-associated fungal infections are shown in Table 1. MFCs were determined following the method of McGinnis.

[2] = tested on: C. neoformans; test: as above; assay type: cell-based; details: Cryptococcus neoformans, H99 clinical isolate, RPMI media, inoculum 10^4 cells, less than 0.01% survival of original inoculum
Description: as §1, §2

[3] = tested on: S. cerevisiae; test: S. cerevisiae IC50 (Table I); assay type: cell-based; details: Saccharomyces cerevisiae
[4] = tested on: L1210 cells; test: in vitro cytotoxicity, 3H-thymidine incorporation in L1210 cells; assay type: cell-based; details: Mus musculus, 48 hours, 6 replicates
Text: Source: L1210 cells were obtained from the American Type Culture Collection (ATCC#CCL219). This line is a mouse lymphocytic leukemia line first described by E. Law et al., J. Natl. Cancer Inst. 10, 179-192 (1949) as a tumor arising in a mouse following skin paintings with 0.2% methycholanthrene. The first report of suspension culture was reported by G. Moore et al. J. Natl. Cancer Inst. 36, 405-421 (1966). This line has been used extensively for routine screening programs of chemical agents and natural products for cytotoxic activity and is also utilized in preliminary testing for antitumor activity by the NCI in cancer chemotherapy screening studies.
The in vitro cytotoxicity studies were performed essentially as described by Denizot and Lang, "Rapid calorimetric assay for cell growth and survival: Modification of tetrazolium dye procedure giving improved sensitivity and reliability", J. Immunological Methods 89, 271 (1986), but with the following modifications. Since many of the drugs had color interference, the viability of the cells was determined with a ^3 H-thymidine incorporation method. L1210 cells in DMEM +10% fetal calf serum were plated at 2.0×10^4 cells/well. An equal volume of test compound was added to each well diluted to 2× the final concentration in the above medium. Final drug concentrations ranged from 0.05 to 50 μM. After 24 hours at 37° C., 2.5 μCi of ^3 H-Thymidine (5 Ci/mmol) was added to each well. At 48 hours, the cells were harvested onto glass filters and radioactivity was measured with a scintillation counter.
The IC50 value was determined as the concentration leading to a 50% reduction of ^3 H-thymidine incorporation relative to control wells. Each value shown in Table 1, above, resulted from 6 replicates for each compound.

[5] = tested on: Calf thymus DNA; test: DNA binding by change in melting of the DNA bound to the compounds (ΔTm); details: 259 nm, 18° C./h heating; initial absorbance of 0.3A259
Description: DNA binding potency was determined for each of the compounds because previous work had determined that the binding of dicationic molecules to DNA is a prerequisite for their antimicrobial activity. See e.g., Tidwell, R. R., et al., Antimicrob. Agents Chemother. 37, 1713-1716 (1993); Bell, C. A., et al., Antimicrob. Agents Chemother. 35, 1099-1107 (1991). The DNA binding of the compounds was determined by the change in melting of the DNA bound to the compounds. The method is well documented and is a considered a standard method for determining DNA binding strength. See Cory, M. et al., J. Med. Chem. 25, 431-438 (1992). In brief, a UV-visible light spectrophotometer with a cuvette changer was interfaced to a microcomputer that recorded the cuvette temperature and DNA-absorbance data at 259 nm as the sample was heated at a rate of 18° C./h. Calf thymus DNA was used at an initial absorbance of 0.3A259. The midpoint of each denaturation curve was determined after graphic selection on the computer of the starting and ending absorbance temperature for each curve of each experiment. DNA or DNA bound to experimental compound was run in each experiment and the ΔTm s were determined from the polynucleotide TM for that experiment.

SMILES | IC50 [3] [µM] | MFC [1] [µM] | MFC [2] [µM] | IC50 [4] [µM] | ΔTm DNA binding [5] [°C]
N=C(N)c1ccc2nc(-c3ccc(-c4nc5ccc(C(=N)N)cc5[nH]4)o3)[nH]c2c1 [Compound 9, 2,5-bis(5-amidino-2-benzimidazolyl)furan] | – | 6.44 (≈ 2.48 µg/mL) | 1.61 (≈ 0.619 µg/mL) | – | –
c1cc2[nH]c(-c3ccc(-c4nc5cc(C6=NCCN6)ccc5[nH]4)o3)nc2cc1C1=NCCN1 [Compound 10, 2,5-bis[5-(2-imidazolinyl)-2-benzimidazolyl]furan] | – | 5.21 (≈ 2.27 µg/mL) | 2.6 (≈ 1.13 µg/mL) | – | –
N=C(N)c1ccc2[nH]c(-c3cccc(-c4nc5cc(C(=N)N)ccc5[nH]4)n3)nc2c1 [Compound 7, 2,6-bis(5-amidino-2-benzimidazoyl)pyridine] | 95 | > 179 | > 179 | 13.6 | 15.3
Cn1c(-c2nc3ccc(C(=N)N)cc3[nH]2)ccc1-c1nc2ccc(C(=N)N)cc2[nH]1 [Compound 4, 1-Methyl-2,5-bis(5-amidino-2-benzimidazolyl)pyrrole] | 90 | 2.84 (≈ 1.13 µg/mL) | 5.69 (≈ 2.26 µg/mL) | 0.81 | 20.3
N=C(N)c1ccc2nc(-c3ccc(-c4nc5ccc(C(=N)N)cc5[nH]4)[nH]3)[nH]c2c1 [Compound 1, 2,5-bis(5-amidino-2-benzimidazolyl)pyrrole] | 45 | 5.71 (≈ 2.19 µg/mL) | 2.85 (≈ 1.09 µg/mL) | 0.21 | 18.1
c1cc(-c2nc3ccc(C4=NCCCN4)cc3[nH]2)nc(-c2nc3ccc(C4=NCCCN4)cc3[nH]2)c1 [Compound 8, 2,6-bis[5-(1,4,5,6-tetrahydro-2-pyrimidinyl)-2-benzimidazolyl]pyridine] | 304 | > 52 | 19 (≈ 9.05 µg/mL) | 3 | 14.8

Second part, led by results:

IC50 [3] [µM] | SMILES | MFC [1] [µM] | MFC [2] [µM] | IC50 [4] [µM] | ΔTm DNA binding [5] [°C]
10 | c1cc(-c2nc3cc(C4=NCCN4)ccc3[nH]2)nc(-c2nc3cc(C4=NCCN4)ccc3[nH]2)c1 [Compound 3, 2,6-bis[5-(2-imidazolinyl)-2-benzimidazolyl]pyridine] | 2.6 (≈ 1.16 µg/mL) | 5.2 (≈ 2.33 µg/mL) | 1.26 | –
> 100 | Cn1c(-c2nc3cc(C4=NCCN4)ccc3[nH]2)ccc1-c1nc2cc(C3=NCCN3)ccc2[nH]1 [Compound 5] | 5.09 (≈ 2.29 µg/mL) | 2.54 (≈ 1.14 µg/mL) | 1.51 | 22.5
< 1 | c1cc2[nH]c(-c3ccc(-c4nc5cc(C6=NCCN6)ccc5[nH]4)[nH]3)nc2cc1C1=NCCN1 [Compound 2, 2,5-bis-[5-(2-imidazolinyl)-2-benzimidazolyl]pyrrole] | 26.8 (≈ 11.7 µg/mL) | 107 (≈ 46.6 µg/mL) | 1.07 | –
